The values below come from patent US20150094294A1, “COMPOUNDS AND METHODS FOR TREATING MALARIA” (Cellceutix Corporation, priority 2012, published 2015).

Holding throughout (type): cell-based
One series can be described thus: in vitro.
For series [1], the system named is P. falciparum DD2 (chloroquine-resistant). Nature of the series: Anti-malarial activity, P. falciparum DD2 culture, 72 hour, DNA content by flow cytometry. The settings on record: Plasmodium falciparum, synchronized ring-stage parasites. The protocol: Numerous compounds were screened in cultures of the malaria parasite P. falciparum 3D7 (chloroquine-sensitive) and DD2 (chloroquine-resistant). The compounds were also screened for toxixcity against 3T3 cells, HepG2 cells, and in a hemolysis assay. In brief, P. falciparum parasites were cultured in RPMI 1640 (Invitrogen) supplemented with Albumax II (Invitrogen). For synchronization, schizont stage parasites were magnet purified using a SuperMACS™ II Cell Separation Unit (Miltenyi Biotech). For IC50 determinations, synchronized ring-stage parasites were plated at 0.5% parasitemia and 8% hematocrit in 96-well plates at a total volume of 50 μL. Serial dilutions of 2× concentration of the respective compound, ranging from 2.5 μM to 20 nM, were added to the wells to bring the total volume up to 100 μL and 4% hematocrit. Compounds were assayed for a 72 hour period, after which the cultures were fixed with a solution of 4% paraformaldehyde and 0.08% glutaraldhyde in PBS. The cells were then permeabilized with 0.25% Triton X-100, and SYTOX Green Nucleic Acid Stain (Invitrogen) in PBS was added to a final concentration of 5 μM. DNA content, as an indicator of parasitemia, was analyzed on an Accuri C6 Flow Cytometer with C-Sampler. IC50 curves were generated using GraphPad Prism (GraphPad Software).
For orientation: Flow cytometry measures light scatter and fluorescence of single cells or particles in a stream.

Series [2] is described as follows: Cytotoxicity against 3T3 cells. As to conditions: mouse, 3T3 cells; read-out: Cytotoxicity 3T3 EC50.
In series [3] the test system is P. falciparum 3D7 (chloroquine-sensitive). Nature of the series: Anti-malarial activity, P. falciparum 3D7 culture, 72 hour, DNA content by flow cytometry. The settings on record: Plasmodium falciparum, 3D7, 72 h, synchronized ring-stage parasites. In a few lines:
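Magnet-synchronized ring-stage parasites in RPMI 1640/Albumax II were plated at 0.5% parasitemia, 4% final hematocrit, with compound added as 2× dilutions (2.5 μM to 20 nM) for 72 h. Fixed, Triton-permeabilized cells were stained with SYTOX Green (5 μM final), and DNA content was measured by flow cytometry to derive IC50.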

The nature of series [4]: Cytotoxicity against HepG2 cells. As to conditions: human, HepG2 cells; read-out: Cytotoxicity HepG2 EC50.

SMILES strings stand for the structures. In brackets after ≈: the same amount, converted by molar mass.

Take `N=C(N)NCCc1cccc(NC(=O)c2cc(C(=O)Nc3cccc(CCNC(=N)N)c3)ncn2)c1` [Compound 100]: the EC50 (in general, the concentration needed to bring the measured effect to its halfway point) in the series “in vitro” is over 1000 µg/mL; in series [2] it was 769 µM; in series [4] it was 830 µM. Moreover, the IC50 – broadly, the concentration that inhibits the measured activity by half – in series [1] worked out at 0.135 µM; in series [3], 0.035 µM.
In the case of `N#Cc1cccc(C(=O)Nc2cc(C(F)(F)F)cc(NC(=O)c3cc(C(=O)Nc4cc(C(F)(F)F)cc(NC(=O)c5cccc(C#N)c5)c4SCCN)ncn3)c2SCCN)c1` [Compound 101], the figures for the EC50 (in “in vitro”; in series [2]; in series [4]) were 583 µg/mL (≈ 653 µM), 74.4 µM and 27 µM, respectively. The IC50 in series [1] turned out to be 0.113 µM; in series [3] it was 0.047 µM.
The matching figures for `N=C(N)NCCCCOc1cc(OCCCCNC(=N)N)c(C(F)(F)F)cc1NC(=O)c1cc(C(=O)Nc2cc(C(F)(F)F)c(OCCCCNC(=N)N)cc2OCCCCNC(=N)N)ncn1` [Compound 104]: 2 µg/mL (≈ 2.06 µM), 25 µM, 39 µM, 0.301 µM and 0.2 µM.
With `CC(C)(C)c1cc(NC(=O)CCCCNS(C)(=O)=O)c(SCCNS(C)(=O)=O)c(NC(=O)c2cccc(C(=O)Nc3cc(C(C)(C)C)cc(NC(=O)CCCCNS(C)(=O)=O)c3SCCNS(C)(=O)=O)c2)c1` [Compound 107], the EC50 was over 1000 µg/mL in the series “in vitro”, over 1000 µM in series [2] and over 1000 µM in series [4]. Besides, the IC50 in series [1] was found to be 0.484 µM; in series [3] it was 0.295 µM.
With `N=C(N)N1CCC(Oc2cc(OC3CCN(C(=N)N)C3)c(C(F)(F)F)cc2NC(=O)c2cc(C(=O)Nc3cc(C(F)(F)F)c(O[C@@H]4CCN(C(=N)N)C4)cc3O[C@@H]3CCN(C(=N)N)C3)ncn2)C1` (some centres unmarked) [Compound 111], the EC50 in the series “in vitro” came out at 65 µg/mL (≈ 67.5 µM); in series [2] it was 32 µM; in series [4], 84 µM. The values for the IC50 in series [1] and in series [3] were 0.431 µM and 0.61 µM, respectively.
On the same counts, the results for `N=C(N)NCCSc1cc(SCCNC(=N)N)c(C(F)(F)F)cc1NC(=O)c1cc(C(=O)Nc2cc(C(F)(F)F)c(SCCNC(=N)N)cc2SCCNC(=N)N)ncn1` [Compound 114] are 61 µg/mL (≈ 66.1 µM), 31 µM, 57 µM, 0.656 µM and 0.672 µM.
The matching figures for `N=C(N)NCCSc1cc(SCCN)c(NC(=O)c2cc(C(=O)Nc3cc(C(F)(F)F)c(SCCNC(=N)N)cc3SCCN)ncn2)cc1C(F)(F)F` [Compound 115]: 35 µg/mL (≈ 41.7 µM), 26 µM, 47 µM, 0.664 µM and 0.68 µM.
`N=C(N)NCCCc1cc(SCCN)c(NC(=O)c2cc(C(=O)Nc3cc(C(F)(F)F)c(CCCNC(=N)N)cc3SCCN)ncn2)cc1C(F)(F)F` [Compound 116]: the results for the EC50 (in the series “in vitro”; in series [2]; in series [4]) were 39 µg/mL (≈ 48.6 µM), 76 µM and 95 µM, respectively. Moreover, the IC50 is 0.398 µM in series [1] and 0.706 µM in series [3].
On the same counts, the results for `N=C(N)NCCCCOc1cc(OCCCCNC(=N)N)c(C(F)(F)F)cc1NC(=O)Nc1cc(C(F)(F)F)c(OCCCCNC(=N)N)cc1OCCCCNC(=N)N` [Compound 128] are 58 µg/mL (≈ 67.1 µM), 121 µM, 232 µM, 0.886 µM and 0.881 µM.
The matching figures for `N=C(N)NCCCCC(=O)Nc1ccc(-c2nnc(-c3ccc(NC(=O)CCCCNC(=N)N)cc3)o2)cc1` [Compound 131]: 212 µg/mL (≈ 397 µM), 322 µM, 356 µM, 0.065 µM and 0.042 µM.
In the case of `N=C(N)NCCCOc1cc(OCCCNC(=N)N)c(-c2ccc(C(F)(F)F)cc2)cc1-c1ccc(C(F)(F)F)cc1` [Compound 144], the EC50 turned out to be 3 µg/mL (≈ 5.03 µM) in “in vitro”, 27 µM in series [2] and 90 µM in series [4]. This molecule also showed an IC50 in series [1] of 0.247 µM.
The matching figures for `NCCCOc1c(-c2cccc(C(F)(F)F)c2)cc(-c2cccc(C(F)(F)F)c2)c(OCCCN)c1-c1cccc(C(F)(F)F)c1` [Compound 145]: 6 µg/mL (≈ 9.14 µM), 14 µM, 28 µM and 0.658 µM.
Turning to `NCCN1CCc2ccc(NC(=O)c3cc(C(=O)Nc4ccc5c(c4)CCN(CCN)CC5)ncn3)cc2CC1` [Compound 146], the EC50 was 123 µg/mL (≈ 227 µM) in “in vitro”, 373 µM in series [2] and 373 µM in series [4]. Besides, the IC50 in series [1] is 0.331 µM; in series [3], 0.308 µM.
On to `CC(C)N1CCc2ccc(NC(=O)c3cc(C(=O)Nc4ccc5c(c4)CCN(C(C)C)CC5)ncn3)cc2CC1` [Compound 147], for which the EC50 in “in vitro” is 560 µg/mL (≈ 1040 µM); in series [2] it was over 100 µM; in series [4] it was over 100 µM. The IC50 in series [1] was determined as 0.829 µM; in series [3] it was 0.696 µM.
Regarding `NC1CCC(N2CCc3ccc(NC(=O)c4cc(C(=O)Nc5ccc6c(c5)CCN(C5CCC(N)CC5)CC6)ncn4)cc3CC2)CC1` (centres unmarked) [Compound 148], the EC50 in “in vitro” is over 1000 µg/mL; in series [2] it was over 1000 µM; in series [4], over 1000 µM. The molecule further had an IC50 in series [1] of 0.081 µM.
For `N=C(N)NCCN1CCc2ccc(NC(=O)c3cc(C(=O)Nc4ccc5c(c4)CCN(CCNC(=N)N)CC5)ncn3)cc2CC1` [Compound 150], the EC50 in “in vitro” amounted to 197 µg/mL (≈ 314 µM); in series [2] it was 168 µM; in series [4], 157 µM. For the same molecule, the IC50 in series [1] amounted to 0.53 µM.
On the same counts, the results for `N=C(N)NCCCCN1CCc2ccc(NC(=O)c3cc(C(=O)Nc4ccc5c(c4)CCN(CCCCNC(=N)N)CC5)ncn3)cc2CC1` [Compound 151] are over 1000 µg/mL, 469 µM, 408 µM and 0.563 µM.
On to `N=C(N)NCCCc1cccc(-c2ccc3c4ccc(-c5cccc(CCCNC(=N)N)c5)cc4n(CCCNC(=N)N)c3c2)c1` [Compound 155], for which the EC50 was found to be 6 µg/mL (≈ 9.73 µM) in the series “in vitro”, 131 µM in series [2] and 100 µM in series [4]. In addition, the IC50 in series [1] was 0.457 µM; in series [3] it was 0.272 µM.
On the same counts, the results for `N=C(N)NCCCCC(=O)Nc1ccc(Oc2cccc(Oc3ccc(NC(=O)CCCCNC(=N)N)cc3)c2)cc1` [Compound 157] are 299 µg/mL (≈ 520 µM), over 100 µM, over 100 µM, 0.244 µM and 0.322 µM.
The matching figures for `FC(F)(F)c1ccc(CN2CCNCC2)cc1Oc1ccc(Oc2cc(CN3CCNCC3)ccc2C(F)(F)F)cc1` [Compound 158]: 17 µg/mL (≈ 28.6 µM), 14 µM, 29 µM, 1.09 µM and 0.655 µM.
Take `Fc1cc(NC2CCNCC2)cc(Oc2ccc(Oc3cc(F)cc(NC4CCNCC4)c3)cc2)c1` [Compound 164]: the EC50 in “in vitro” was determined as 15 µg/mL (≈ 30.3 µM); in series [2], 23 µM; in series [4], 78 µM. In addition, the figures for the IC50 in series [1] and in series [3] were 0.98 µM and 0.61 µM, respectively.
The matching figures for `NCc1cc(C(F)(F)F)ccc1Oc1ccc(Oc2ccc(C(F)(F)F)cc2CN)cc1` [Compound 166]: 364 µg/mL (≈ 798 µM), 17 µM, 71 µM, 1.23 µM and 0.991 µM.
The matching figures for `N=C(N)NCCCCOc1cc(OCCCCNC(=N)N)c(C(F)(F)F)cc1NC(=O)Nc1ccc(NC(=O)Nc2cc(C(F)(F)F)c(OCCCCNC(=N)N)cc2OCCCCNC(=N)N)cc1` [Compound 167]: 7 µg/mL (≈ 7.01 µM), 37 µM, 60 µM, 0.951 µM and 0.724 µM.
Consider `N=C(N)NCCCCC(=O)Nc1cc(C(F)(F)F)cc(NC(=O)c2cc(C(=O)Nc3cc(C(F)(F)F)cc(NC(=O)CCCCNC(=N)N)c3SCCC(=O)O)ncn2)c1SCCC(=O)O` [Compound 168], for which the EC50 was over 1000 µg/mL in the series “in vitro”, over 100 µM in series [2] and over 100 µM in series [4]. The IC50 worked out at 0.098 µM in series [1] and 0.227 µM in series [3].
Consider `N=C(N)NCCCCC(=O)Nc1cc(Br)cc(NC(=O)c2cc(C(=O)Nc3cc(Br)cc(NC(=O)CCCCNC(=N)N)c3SCCO)ncn2)c1SCCO` [Compound 170], for which the EC50 in “in vitro” worked out at 59 µg/mL (≈ 62.7 µM); in series [2], 110 µM; in series [4] it was 165 µM. Also, the IC50 in series [1] came to 0.591 µM; in series [3] it was 0.569 µM.
The matching figures for `N=C(N)NCCCCC(=O)Nc1ccc(-c2ccc(NC(=O)CCCCNC(=N)N)c(C(F)(F)F)c2)cc1C(F)(F)F` [Compound 173]: over 1000 µg/mL, over 2000 µM, over 2000 µM, 0.274 µM and 0.204 µM.
